Test results: patent US20090060871A1, “ADMINISTRATION OF AGONIST-ANTAGONIST IN OPIOID-DEPENDENT PATIENTS” (priority 2006, published 2009)
Structures can show the parent of a compound that is named as a salt.

How the values were obtained:
[1] = in vivo; cited from earlier work
[2] = water; cited from earlier work
[3] = system: opioid-dependent patient; assay: Clinical case reports: nalbuphine 2 cc IM twice a day in opioid-dependent patients (Examples 1A-7A); assay type: in vivo, human
[4] = system: HIV-infected, opioid-dependent patient; assay: Average adherence to ARV regimen during nalbuphine administration; assay type: in vivo, human
Method: Compliance with a treatment regimen and in particular to an ARV regimen is determined using an “average adherence” value calculated using the formula: […]
where A is the number of tablets or gel capsules required by the protocol to be administered to a patient over four weeks; and B is the number of tablets or gel capsules prescribed but actually not taken by a patient over the same period of time.

[5] = system: IDU (injectable drug users); assay: Pilot study of Nalbuphine administration to IDU (injectable drug users), Example 8A; assay type: in vivo, human
From the text: A pilot study was initiated to evaluate treatment with Nalbuphine (agonist-antagonist) in the context of HIV prevention, treatment and care interventions. The first pilot study of the effects of Nalbuphine administration to IDU (injectable drug users) started at the 8th of August 2006 in Moscow. It is still being conducted on outpatient basis.
Duration of individual treatment varied from patient to patient (from 10 days to 180 days) depending on patient's condition, life-style, substance abuse history, etc. The frequency of administration varied from 20 mg per patient bid (initially) to 20 mg per patient per week (after 30 days).
The objective of the study is to compare this method with the other methods of drug treatment typical for Russia, and to measure the effects of out-patient Nalbuphine administration using following criteria:
The clinical trial included 19 clients, all with simultaneous codeine addiction, 7 patients living with AIDS, 4 being multiple substance users. In all cases, the patient was a difficult case (5-11 years of heroin abuse). 3 of the patients had very high (3-5 g a day) doses of heroin abuse.
All patients were between 18-50 years old, diagnosed with opiate abuse (in some cases in combination with other substances). They were admitted to the study after three days of opiate abstinence.
Patients with psychiatric, oncological, diabetic conditions, chronic kidney illnesses, and pregnancy were excluded from the study.

[6] = system: opioid-dependent patients; assay: Study of 28 patients who received Nalbuphine for up to 6 months, Example 9A; assay type: in vivo, human
From the text: The results of a study of 28 patients who received Nalbuphine for up to 6 months are as follows.

[7] = Example 1A, M., 2 cc IM twice a day for 48 days
[8] = Example 3A, N., 2 cc IM twice a day for 30 days

Oc1ccc2c3c1O[C@H]1[C@@H](O)CCC4(O)C(C2)N(CC2CCC2)CCC314 (stereo partly drawn) [nalbuphine hydrochloride, 17-(cyclobutylmethyl)-4,5α-epoxymorphinan-3,6α-14-triol hydrochloride]
plasma half life [1]: about five | solubility [2]: Water-soluble

Oc1ccc2c3c1OC1[C@@H](O)CCC4(O)[C@@H](C2)N(CC2CCC2)CC[C@]314 (stereo partly drawn) [nalbuphine, 17-(cyclobutylmethyl)-4,5α-epoxymorphinane-3,6α-14-triol]
aggravation of opportunistic infections or HCV [3, 7]: No aggravation | craving [3, 7]: profound decrease in craving | desire for drug use ([3]; Example 2A, D., 2 cc IM twice a day for 52 days): denies desire for drug use | aggravation of opportunistic infections or HCV ([3]; Example 3A, N.): No aggravation | cravings for drugs [3, 8]: cravings for drugs decreased | pain (chronic osteomyelitis) [3, 8]: pain relief | aggravation of opportunistic infections or HCV ([3]; Example 5A, V.): No aggravation | alcohol problems ([3]; Example 5A, V.): problems with alcohol persist | aggravation of opportunistic infections or HCV ([3]; Example 6A, L.): No aggravation | drug cravings ([3]; Example 6A, L.): drug cravings decreased | attempts of suicide ([3]; Example 6A, L., multiple earlier attempts): No attempts of suicide | Average adherence to ART during April ([4]; Example 3A, N., 98% in January-March 2006 before nalbuphine): 100% | Average adherence to ART during April ([4]; Example 4A, S., male, Stocrin+Combivir, 76% in January-March 2006 before nalbuphine): 97% | Average adherence to ART during April ([4]; Example 5A, V., Stocrin and Combivir, 70% in January-March 2006 before nalbuphine): 95% | Average adherence to ART during April ([4]; Example 6A, L., Efavirenz and Combivir, 68% in January-March 2006 before nalbuphine): 93% | Average adherence to ART during April ([4]; Example 7A, S., female, 98% in January-March 2006 before nalbuphine): 93% | side effects or drug-drug interactions ([5]; 19 clients): No side effects or drug-drug interactions were observed | involvement/adherence to HIV treatments ([5]; all HIV-positive patients): higher involvement/adherence | quality of life ([5]; all patients): improved quality of life | patients who stopped heroin and codeine consumption ([5]; of 19 clients, 20 mg bid initially to 20 mg per week, 10 to 180 days, outpatient): 18 patients | correlation between administrated dose and heroin consumption ([6]; 28 patients): inverse correlation | overdose, side effects or new infections associated with injectable drugs ([6]; 28 patients): no observed instances of overdose, side effects or new infections | quality of life ([6]; 28 patients): improved | people staying clean (periodic urine tests for opiates) while on therapy ([6]; 28 patients, up to 6 months): two thirds | reduction of total heroin and other opiate consumption ([6]; 28 patients, up to 6 months): up to 75% | cravings for drug ([6]; all patients): clear reduction of cravings for drug | compliance (adherence) to ARVT ([6]; patients already receiving ARVT): nearly perfect compliance (adherence)
